# Experimental data from the supplement of paper PMC10307832.
# Legend:
# Test in all cases: relative viability (nuclei count vs DMSO), 5 days (fraction); higher = more cells survive
# NVP-TAE684 + Bortezomib = compound: COc1cc(N2CCC(N3CCN(C)CC3)CC2)ccc1Nc1ncc(Cl)c(Nc2ccccc2S(=O)(=O)C(C)C)n1 [NVP-TAE684] + CC(C)C[C@H](NC(=O)[C@H](Cc1ccccc1)NC(=O)c1cnccn1)B(O)O [Bortezomib] (partner 0.002 µM)
# Method in brief: (§1)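 Nuclei were stained with Hoechst during a one-step fixation (final 0.05% Triton X-100, 1% formaldehyde, 1 ug/ml Hoechst) carried out 5 days after dosing, then counted on 4× images. The cells, lung cancer lines in 1536-well plates, had been dosed by pin tool the day after seeding with one drug alone or a fixed anchor-drug dose plus five library-drug doses (not always all listed) in √10 steps. Relative viability is the nuclei count in treated wells divided by that in vehicle wells, and each value is the median of duplicate plates.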
# NVP-TAE684 + Vorinostat = compound: COc1cc(N2CCC(N3CCN(C)CC3)CC2)ccc1Nc1ncc(Cl)c(Nc2ccccc2S(=O)(=O)C(C)C)n1 [NVP-TAE684] + O=C(CCCCCCC(=O)Nc1ccccc1)NO [Vorinostat] (partner 1 µM)
# Method in brief: as §1
# NVP-TAE684 + AZD7762 = compound: COc1cc(N2CCC(N3CCN(C)CC3)CC2)ccc1Nc1ncc(Cl)c(Nc2ccccc2S(=O)(=O)C(C)C)n1 [NVP-TAE684] + NC(=O)Nc1cc(-c2cccc(F)c2)sc1C(=O)N[C@H]1CCCNC1 [AZD7762] (partner 0.2 µM)
# Method in brief: as §1
# Vandetanib + Foretinib = compound: COc1cc2/c(=N/c3ccc(Br)cc3F)nc[nH]c2cc1OCC1CCN(C)CC1 [Vandetanib] + COc1cc2c(Oc3ccc(NC(=O)C4(C(=O)Nc5ccc(F)cc5)CC4)cc3F)ccnc2cc1OCCCN1CCOCC1 [Foretinib] (partner 0.25 µM)
# Method in brief: as §1
# [1] = compound: C1=CC=C2C(=C1)N=C(S2)C(C#N)C3=NC(=NC=C3)NCCC4=CN=CC=C4 + O=C(c1cc(Cc2n[nH]c(=O)c3ccccc23)ccc1F)N1CCN(C(=O)C2CC2)CC1 [Olaparib] (partner 8 µM)
# Method in brief: as §1
Cell Line,relative viability (NVP-TAE684 + Bortezomib; first compound 0.2 µM),relative viability (NVP-TAE684 + Bortezomib; first compound 2 µM),relative viability (NVP-TAE684 + Vorinostat; first compound 0.2 µM),relative viability (NVP-TAE684 + Vorinostat; first compound 0.6325 µM),relative viability (NVP-TAE684 + Vorinostat; first compound 2 µM),relative viability (NVP-TAE684 + AZD7762; first compound 0.2 µM),relative viability (NVP-TAE684 + AZD7762; first compound 0.6325 µM),relative viability (NVP-TAE684 + AZD7762; first compound 2 µM),relative viability (Vandetanib + Foretinib; first compound 0.02 µM),relative viability (Vandetanib + Foretinib; first compound 0.06325 µM),relative viability (Vandetanib + Foretinib; first compound 0.2 µM),relative viability (Vandetanib + Foretinib; first compound 0.6325 µM),relative viability (Vandetanib + Foretinib; first compound 2 µM),relative viability ([1]; first compound 0.005 µM),relative viability ([1]; first compound 0.05 µM),relative viability ([1]; first compound 0.1581 µM),relative viability ([1]; first compound 0.5 µM),relative viability (NVP-TAE684 + Bortezomib; first compound 0.6325 µM),relative viability ([1]; first compound 0.01581 µM)
PC-3 [JPC-3],0.99,0.731,0.908,0.72,0.578,0.821,0.673,0.54,0.984,0.904,0.936,0.894,0.468,1.01,1.08,1.12,0.679,,
IA-LM,0.679,0.583,0.66,0.897,0.7,,,,1.32,0.981,1.11,1.33,1.12,,0.804,0.836,0.763,0.563,0.883
NCI-H520,,0.321,0.776,0.681,0.313,,,,0.623,0.682,0.194,0.754,0.806,0.302,0.309,0.321,0.29,0.672,0.307
A549,,,,,,,,,1.05,0.961,0.992,0.987,0.854,0.488,0.321,0.409,0.232,,0.236
BEN,0.784,0.679,0.547,0.524,0.419,0.794,0.615,0.6,0.601,0.517,0.499,0.61,0.62,0.976,1.03,1.05,0.853,0.817,1.21
COR-L 105,0.903,0.309,,0.78,0.509,,,,0.91,1.11,0.329,0.533,0.358,0.544,0.602,0.578,0.551,0.556,0.602
NCI-H1734,0.986,0.601,0.846,,0.631,0.481,0.443,0.432,0.825,0.913,0.169,0.903,0.771,0.509,0.664,0.633,0.614,0.982,0.616
LOU-NH91,0.548,0.518,0.817,0.8,0.628,0.782,0.425,0.532,0.972,0.807,0.787,0.713,0.578,0.914,0.826,0.888,0.801,0.492,0.914
NCI-H2405,0.941,0.82,1.09,0.896,0.518,0.767,0.598,0.31,1.01,0.81,1.08,1.07,0.99,0.797,0.897,0.867,0.77,0.986,0.835
HCC-15,0.916,1,0.841,0.855,0.521,1.11,1.36,0.806,1.05,0.96,0.577,1.04,0.973,0.663,0.662,0.837,0.686,1.07,0.727
HCC-44,1,0.83,1.18,1.14,0.928,1.03,1.08,1.03,,,,,,0.994,0.987,1.01,0.968,0.863,1
NCI-H1792,0.779,0.819,,,,0.678,0.733,0.394,,,,,,,0.427,0.38,0.215,0.967,0.709
NCI-H2347,1.41,1.02,0.538,0.588,0.44,0.723,0.613,0.628,1.01,,0.789,1.02,0.553,0.607,0.627,0.642,0.525,0.822,0.611
SW 900,,,0.686,0.46,0.687,0.526,0.476,0.445,0.927,0.779,0.143,1,0.917,0.65,0.838,0.938,0.87,,0.755
RERF-LC-KJ,0.952,0.916,0.589,0.644,0.48,0.97,0.985,0.729,0.875,0.951,0.904,0.882,0.937,0.923,0.895,0.97,0.44,1.25,0.993
NCI-H522,,,0.78,0.855,0.764,0.91,0.938,0.744,,,,,,0.66,0.634,0.533,0.751,,0.638
NCI-H1666,0.849,0.4,0.99,0.964,0.877,0.898,0.889,0.652,0.908,0.947,0.439,0.93,0.786,0.754,0.764,0.767,0.681,0.71,0.761
NCI-H2023,,0.268,0.646,0.634,0.102,,,,0.852,0.824,0.0955,0.591,0.431,0.508,0.562,0.541,0.447,0.944,0.543
SK-LU-1,1.21,1.01,,0.822,0.487,,,,0.819,0.564,0.197,0.798,0.805,0.404,0.481,0.513,0.483,1.08,0.454
